Values after ≈ are worked out from the molar mass of the structure shown.
Tests used:
Bacillus subtilis = assay: Antibacterial activity against Bacillus subtilis at 30 ug/disk by disc-diffusion assay; format: functional; conditions: read-out: IZ
Candida albicans = assay: Antifungal activity against Candida albicans at 30 ug/disk by disc-diffusion assay; format: functional; conditions: read-out: IZ
P388 = assay: Cytotoxicity against mouse P388 cells; format: functional, cell-based

C[C@@H]1C[C@H](C)[C@H]2c3c(ccn(O)c3=O)O[C@H](C)[C@@]2(C)C1
zone of inhibition at 30 µg/disc (Bacillus subtilis): 8 mm | zone of inhibition at 30 µg/disc (Candida albicans): 11 mm | IC50 (P388): 1.8 µg/mL (≈ 6.49 µM)

C[C@@H]1C[C@H](C)[C@H]2c3c(cc[nH]c3=O)O[C@H](C)[C@@]2(C)C1
IC50 (P388): > 12.5 µg/mL

C[C@@H]1C[C@H](C)[C@@H](c2c(O)cc[nH]c2=O)[C@H](C)[C@@](C)(O)C1 [DEOXYAKANTHOMYCIN]
IC50 (P388): > 12.5 µg/mL

Reference: ChEMBL document CHEMBL1152309, “Isolation of 2-pyridone alkaloids from a New Zealand marine-derived penicillium species” (J Nat Prod, 2009)
